Where two headings read alike, the source gives them in different places.

The nature of series [1]: Plasma unlabeled fatty acid concentrations. In kind it is in vivo, human. The note with it: unlabeled, mean of 17 time points, low linoleate diet.
The format of series [2] is in vivo, human. The conditions noted are these: for Time first detected in plasma: after beginning infusion; for Total esterified amount in plasma at 7 h: 7 h of infusion.

As for `CCCCC/C=C\C/C=C\C/C=C\C/C=C\C/C=C\CCC(=O)O` [22:5n-6], the entries for the “Fatty acid concentration in plasma total lipids (mean)” value (shortened to “Fatty acid concentration”) in series [1] (subject S01) and in series [1] (subject S02) were 16.8 nmol/mL and 8.0 nmol/mL, respectively.

`CCCCC/C=C\C/C=C\CCCCCCCCCC(=O)O` [20:2n-6]: the “Fatty acid concentration” value was 8.6 nmol/mL in series [1] (subject S01) and 13.6 nmol/mL in series [1] (subject S02).

`CCCCCCCCCCCCCCCCCCCCCC(=O)O` [22:0]: the “Fatty acid concentration” value in series [1] (subject S01) was 30.5 nmol/mL; in series [1] (subject S02) it was 17.4 nmol/mL.

Regarding `CCCCCCCC/C=C\CCCCCCCCCCCCCC(=O)O` [24:1n-9], the “Fatty acid concentration” value in series [1] (subject S01) is given as 48.1 nmol/mL; in series [1] (subject S02) it was 21.8 nmol/mL.

Consider `CCCCCC/C=C\CCCCCCCC(=O)O` [16:1n-7], for which the “Fatty acid concentration” value in series [1] (subject S01) is on record as 153 nmol/mL; in series [1] (subject S02) it was 91.9 nmol/mL.

As for `CCCCC/C=C\C/C=C\C/C=C\C/C=C\CCCCCC(=O)O` [22:4n-6], the results for the “Fatty acid concentration” value in series [1] (subject S01) and in series [1] (subject S02) were 9.6 nmol/mL and 8.5 nmol/mL, respectively.

In the case of `CCCCC/C=C\C/C=C\C/C=C\CCCCC(=O)O` [18:3n-6], the “Fatty acid concentration” value in series [1] (subject S01) is listed as 15.3 nmol/mL; in series [1] (subject S02) it was 12.3 nmol/mL.

As for `CCCCC/C=C\C/C=C\C/C=C\CCCCCCC(=O)O` [20:3n-6], the figures for the “Fatty acid concentration” value in series [1] (subject S01) and in series [1] (subject S02) were 98.2 nmol/mL and 79.1 nmol/mL, respectively.

`[2H]C([2H])([2H])C([2H])([2H])/C=C\C/C=C\C/C=C\C/C=C\C/C=C\CCCCCC(=O)O` [d5-22:5n-3]: the “Time first detected in plasma” value in series [2] came out at 40 min. Further, in series [2] (both subjects), the “Time for which plasma amount increased before leveling off” value is on record as “up to 4 h” and the “Time to achieve steady-state plasma concentration of esterified d5-HUFA” value (“Time … of esterified d5-HUFA” for short) is “about 5 hr”. Further, in series [2] (subject S01), the “Smax (maximal first derivative of plasma total amount time-course of newly synthesized d5-n-3 HUFA)” value was 2.43 nmol/min and the “Total esterified amount in plasma at 7 h” value stood at 580 nmol. The “Time at Smax” value in series [2] (subject S01, 8 h iv infusion of d5-ALA-albumin 0.78 mg/kg BW/hr) is 94 min. In series [2] (subject S02), the “Smax (maximal first derivative of plasma total amount time-course of newly synthesized d5-n-3 HUFA)” value is recorded as 4.14 nmol/min and the “Total esterified amount in plasma at 7 h” value is 920 nmol. In addition, the “Time at Smax” value in series [2] (subject S02, 8 h iv infusion of d5-ALA-albumin 0.78 mg/kg BW/hr) is 156 min.

For the compound `CCCCCCCC/C=C\CCCCCCCCCC(=O)O` [20:1n-9], the “Fatty acid concentration” value in series [1] (subject S01) worked out at 7.8 nmol/mL; in series [1] (subject S02), 9.3 nmol/mL.

Consider `CCCCCCCCCCCCCCCCCC(=O)O` [18:0], for which the “Fatty acid concentration” value in series [1] (subject S01) is reported as 367 nmol/mL; in series [1] (subject S02), 374 nmol/mL.

Take `[2H]C([2H])([2H])C([2H])([2H])/C=C\C/C=C\C/C=C\C/C=C\C/C=C\C/C=C\CCC(=O)O` [d5-22:6n-3]: the “Time first detected in plasma” value in series [2] stood at 40 min. In series [2] (both subjects), the “Time for which plasma amount increased before leveling off” value was “up to 4 h” and the “Time … of esterified d5-HUFA” value is reported as “about 5 hr”. For the same compound, in series [2] (subject S01), the “Smax (maximal first derivative of plasma total amount time-course of newly synthesized d5-n-3 HUFA)” value was 0.67 nmol/min and the “Total esterified amount in plasma at 7 h” value amounted to 148 nmol. For the same compound, in series [2] (subject S02), the “Smax (maximal first derivative of plasma total amount time-course of newly synthesized d5-n-3 HUFA)” value worked out at 0.21 nmol/min and the “Total esterified amount in plasma at 7 h” value was determined as 44 nmol.

On to `[2H]C([2H])([2H])C([2H])([2H])/C=C\C/C=C\C/C=C\CCCCCCCC(=O)O` [d5-18:3n-3, d5–17, 17, 18, 18, 18-18:3n-3, reference compound], for which, in series [2] (in vivo), the “Plasma concentration of unesterified d5-18:3n-3 at 6 h” value stood at 4.37 µM and the “Time to reach steady-state plasma concentration of infused unesterified tracer” value was “about 10 min”.

Regarding `[2H]C([2H])([2H])C([2H])([2H])/C=C\C/C=C\C/C=C\C/C=C\C/C=C\CCCC(=O)O` [d5-20:5n-3], the “Time at Smax” value in series [2] (both subjects) is given as “about 200 min”. The “Time … of esterified d5-HUFA” value in series [2] (both subjects) is on record as “about 5 hr”. The “Smax (maximal first derivative of plasma total amount time-course of newly synthesized d5-n-3 HUFA)” value in series [2] (subject S01) came to 3.23 nmol/min; in series [2] (subject S02), 2.29 nmol/min.

The record behind these values is PMC6105524 (Lipids, 2018).
